≈ marks a conversion by molar mass, not a printed value. Where two headings read alike, the source gives them in different places.
How the values were obtained:
HSC70-NBD = biological target: T1, HSC70-NBD (Homo sapiens, UniProt P11142); assay: SPR binding to wild-type HSC70-NBD
T1 construct: made in house
Method: (§1) The HSC70-NBD variants used in SPR were produced and purified as previously described. All surface plasmon resonance (SPR) experiments were carried out on a Biacore T100 enhanced to T200 sensitivity (GE Life Sciences, Amersham, UK), and amine coupling chemistry was used to immobilize the proteins on a research grade CM5 sensor chip. The running buffer was phosphate-buffered saline (10-mM NaHPO4-NaH2PO4, pH 7.4, 2.7-mM KCl and 137-mM NaCl), and the chip’s surface was activated for 10 min using a 1:1 mixture of 100-mM N-hydroxysuccinimide and 400-mM 1-ethyl-3-(3-dimethylaminopropyl)-carbodiimide. Wild-type HSC70-NBD and the S275W mutant proteins were injected for 10 min at a concentration of 2 μM in a 10-mM sodium acetate buffer, pH 5.0 with 100-μM ADP as protection for the active site lysines. Finally, the surface was blocked via an injection of 1 M ethanolamine, pH 8.5 for 7 min. The flow rate was maintained at 10 μL/min for all the above procedures. On average, ~12,000 response units (RU) of the wild-type and the mutant proteins were immobilized on the chip. Flow cell one was left unmodified as the reference surface. Following protein immobilization, the running buffer was changed to phosphate-buffered saline containing 0.05% Tween20 (v/v) and 5% DMSO.
(§2) To determine binding constants (KD) for the compounds, all liquid handling was carried out using an ECHO 550 acoustic liquid dispenser (Labcyte, Dublin, Ireland), and compounds were added to 384-well polypropylene V-bottomed plates (Greiner, Stonehouse, UK), which were used as sample plates for the SPR experiments. Fresh 100-mM DMSO stocks of each compound were prepared and used to generate eight-point concentration responses ranging from 25 μM to 1000 μM or from 6.25 μM to 500 μM. For adenosine, the concentration range was 50 μM–2000 μM from a 200-mM stock in DMSO, and for VER155008, a stock solution of 0.25 mM in DMSO was prepared with a concentration range of 0.0625–2.5 μM. The buffer mix was made compatible with the Biacore running buffer, and the experiments were performed at a flow rate of 30 μL/min, a sample injection time of 60 s and a dissociation time of 200 s. The CM5 surface was not regenerated between sample injections. Binding constants (KD) were calculated from the DMSO-corrected and background-normalized binding curves generated from the sensorgrams under equilibrium conditions using the 1:1 binding model in Biacore software version 2 (GE Life Sciences, Amersham, UK).

S275W HSC70-NBD [1] = biological target: T2, S275W HSC70-NBD (Homo sapiens, UniProt P11142, S275W); assay: SPR binding to S275W mutant HSC70-NBD
T2 construct: made in house
T2 sequence (P11142 2-386 S275W limits assumed): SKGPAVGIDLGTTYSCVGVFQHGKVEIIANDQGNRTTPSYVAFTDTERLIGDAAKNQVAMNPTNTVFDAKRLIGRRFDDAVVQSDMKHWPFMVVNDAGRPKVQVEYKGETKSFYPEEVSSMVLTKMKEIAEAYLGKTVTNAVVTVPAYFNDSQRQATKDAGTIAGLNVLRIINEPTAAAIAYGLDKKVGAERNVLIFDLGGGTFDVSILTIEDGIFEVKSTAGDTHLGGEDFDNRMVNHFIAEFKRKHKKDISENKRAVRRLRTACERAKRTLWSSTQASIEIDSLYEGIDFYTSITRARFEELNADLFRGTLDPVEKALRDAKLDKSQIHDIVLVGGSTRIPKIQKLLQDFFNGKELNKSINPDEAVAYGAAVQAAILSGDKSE
Method: as §1, §2

HSP72-NBD [2] = system: T3, HSP72-NBD; assay: CPMG relaxation-edited ligand-observed 1H NMR binding and ATP competition; set-up: species or system human
T3 construct: GST (glutathione-S-transferase), PreScission site (N, cleaved yes); made in house; host or cells: BL21-AI E. coli
Method: (§3) To confirm the binding of compounds to HSP72-NBD, a series of CPMG and WaterLOGSY experiments were performed. Compounds were assayed at 200 μM in the presence or absence of 10-μM HSP72-NBD. […] of ATP were also included in the competition experiments. The total assay volume was 200 μL, and the experiments were performed in 3-mm NMR tubes. The buffer was 25-mM Tris, pH 7.5, 50-mM NaCl, 10% D2O and 100 μM of DTT in deionized water. NMR experiments were conducted at a ^1H frequency of 600 MHz using a Bruker Avance 600 spectrometer (Bruker, Bilerica, MA, USA) equipped with a 5-mm TCI Cryo-probe. All data were acquired and processed using Topspin (Bruker, Bilerica, MA, USA) and MNova (Mestrelab Research SL, Santiago de Compostela, Spain). The relaxation-edited 1H-NMR spectrum was acquired at 298 K using the CPMG sequence with a spin-lock time of 600 ms. The water signal was suppressed using pre-saturation during the relaxation delay (2 s) and by using the Watergate sequence subsequent to the CPMG sequence. For each spectrum, 64 transients were acquired.

HSP70 = biological target: HSP70; set-up: method as in PMID 19256508; conditions: cited from earlier work
S275W HSC70-NBD [3] = biological target: T2, S275W HSC70-NBD; set-up: method as in PMID 27708405; conditions: S275W mutation; cited from earlier work
HSP72-NBD [4] = system: T3, HSP72-NBD; assay: waterLOGSY ligand-observed NMR binding; set-up: species or system human; conditions: ligand 200 μM, HSP72-NBD 10 μM
Method: as §3

[5] = Kinetic solubility in pH 7.4 phosphate buffer by quantitative NMR; assay type: physicochemical; conditions: phosphate-buffered saline with 5% DMSO, aqueous with cosolvent or surfactant or cyclodextrin, kinetic from dmso stock, NMR method
Method: Nine microliters of a 10-mM DMSO solution of 1 was pipetted into one well of a 384-deep well plate (Greiner, part-no. 781270). one hundred and seventy-one microliters of aqueous buffer (137-mM NaCl, 2.7-mM KCl and 10-mM phosphate buffer solution (pH 7.4)) were pipetted into the same well and mixed 3 times by pipette to give a 500-µM solution of 1 with 5% DMSO. The plate was centrifuged (1000 rpm for 1 min, Eppendorf 5810C) and then sealed and incubated at room temperature for 20 h without shaking. The plate was centrifuged (1000 rpm for 1 min, Eppendorf 5810R), and 165 µL of the supernatant was transferred to a 3-mm NMR tube (Bruker, Part No. Z112272) using a liquid handler SamplePro Tube SJ S (Bruker, Bilerica, MA, USA)). The concentration of 1 was measured by quantitative ^1H-NMR using a single external standard (200-µM caffeine (Sigma C1778, Merck Life Science UK, Gillingham, UK)) in PBS (pH 7.4) with 1% DMSO-d6). NMR data was collected on a Bruker Avance Neo 600 spectrometer equipped with a 5-mm TCI Cryo-probe. The ^1H spectrum was referenced to the internal deuterated solvent. The operating frequency for ^1H was 600 MHz. […] The quantitative ^1H-NMR spectrum was acquired using a Bruker standard 1D lc1pngppsf2 pulse sequence with 32 scans. […] The quantitative 1H-NMR data analysis was carried out in Mnova 14.1 (Mestrelab Research SL, Santiago de Compostela, Spain).

[6] = Aggregation check in LO-NMR experiments; assay type: physicochemical; conditions: tested concentration 200 µM
Method: as §3

[7] = mean (±SD), n = 3 unless marked n = 2, read-out: HSC70-NBD SPR KD
[8] = n = 2 determinations unless marked single, read-out: HSC70-NBD S275W SPR KD

T1 sequence (P11142 2-386 limits assumed): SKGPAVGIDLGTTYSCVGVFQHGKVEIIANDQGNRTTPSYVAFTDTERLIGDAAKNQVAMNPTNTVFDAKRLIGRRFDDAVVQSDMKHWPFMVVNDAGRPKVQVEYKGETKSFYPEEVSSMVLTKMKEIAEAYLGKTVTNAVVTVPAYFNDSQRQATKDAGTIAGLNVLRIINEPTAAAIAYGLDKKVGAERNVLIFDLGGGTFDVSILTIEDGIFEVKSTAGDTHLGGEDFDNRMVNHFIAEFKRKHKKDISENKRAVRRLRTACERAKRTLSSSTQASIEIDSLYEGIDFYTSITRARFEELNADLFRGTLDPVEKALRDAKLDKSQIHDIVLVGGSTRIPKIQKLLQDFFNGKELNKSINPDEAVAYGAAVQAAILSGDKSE

With `CC(C)c1csc(CCNC(=O)c2cccc(-c3cncc(O)n3)c2)n1` [Compound 4] the Kd (HSC70-NBD; [7]) was 406 µM, the Ligand Efficiency (HSC70-NBD; vHTS hits, HSC70-NBD) was 0.18 kcal/mol per heavy atom and the Kd (S275W HSC70-NBD [1]; [8]) was 385 µM.
With `NC(=O)N1CCN(c2nc(-c3ccc(C#CCN4CCOCC4)cc3)cs2)CC1` [Compound 3, 4-[4-[4-(3-Morpholinoprop-1-ynyl)phenyl]thiazol-2-yl]piperazine-1-carboxamide] the Kd (HSC70-NBD; SPR, WT HSC70-NBD, single determination, read-out: KD HSC70-NBD) was 388 µM, the Ligand Efficiency (HSC70-NBD; calculated for binding to WT HSC70-NBD) was 0.16 kcal/mol per heavy atom and the Kd (S275W HSC70-NBD [1]; SPR, single determination, read-out: KD S275W HSC70) was 352 µM. The “Change in NMR signal intensity for 3, Peak a” value (HSP72-NBD [2]; 3 + HSP72-NBD) was 41%, the “Change in NMR signal intensity for 3, Peak b” value (HSP72-NBD [2]; 3 + HSP72-NBD) was 36% and the “Change in NMR signal intensity for 3, Peak c” value (HSP72-NBD [2]; 3 + HSP72-NBD) was 31%. For the same molecule, the “Change in NMR signal intensity for 3, Peak a” value (HSP72-NBD [2]; 3 + HSP72-NBD + ATP) was 5%, the “Change in NMR signal intensity for 3, Peak b” value (HSP72-NBD [2]; 3 + HSP72-NBD + ATP) was 22% and the “Change in NMR signal intensity for 3, Peak c” value (HSP72-NBD [2]; 3 + HSP72-NBD + ATP) was 7%.
`COc1cccc(-c2cc(CNC(=O)c3c(C)oc4c3C(=O)CCC4)on2)c1` [Compound 8] showed a Kd (HSC70-NBD; [7]) of 99 µM, a Ligand Efficiency (HSC70-NBD; vHTS hits, HSC70-NBD) of 0.2 kcal/mol per heavy atom and a Kd (S275W HSC70-NBD [1]; [8]) of 86 µM.
With `CC(C)(O)C#Cc1cccc(C(=O)NCc2ccc(-n3cncn3)cc2)c1` [Compound 5] the Kd (HSC70-NBD; [7]) was 295 µM, the Ligand Efficiency (HSC70-NBD; vHTS hits, HSC70-NBD) was 0.19 kcal/mol per heavy atom and the Kd (S275W HSC70-NBD [1]; [8]) was 176 µM.
In the case of `N#Cc1ccc(COC[C@H]2O[C@@H](n3c(NCc4ccc(Cl)c(Cl)c4)nc4c(N)ncnc43)[C@H](O)[C@@H]2O)cc1` [VER-155008], the Kd (HSP70) is given as 0.5 µM.
For `Nc1ncnc2c1ncn2[C@@H]1O[C@H](COP(=O)(O)OP(=O)(O)O)[C@@H](O)[C@H]1O` [ADP], the Kd (HSP70) is given as 0.5 µM.
With `CNc1nc(C)cc(-c2cccc(C(=O)NCCc3ccc(C)o3)c2)n1` [Compound 7] the Kd (HSC70-NBD; [7]) was 134 µM, the Ligand Efficiency (HSC70-NBD; vHTS hits, HSC70-NBD) was 0.21 kcal/mol per heavy atom and the Kd (S275W HSC70-NBD [1]; [8]) was 159 µM.
`c1ccc(-c2ccc(Cn3nnnc3N3CCCC(c4ncc[nH]4)C3)cc2)cc1` (stereo not shown) [Compound 6] gave a Kd (HSC70-NBD; [7]) of 13 µM, a Ligand Efficiency (HSC70-NBD; vHTS hits, HSC70-NBD) of 0.24 kcal/mol per heavy atom and a Kd (S275W HSC70-NBD [1]; [8]) of 12 µM.
For `Nc1ncnc2c1ncn2[C@@H]1O[C@H](CO)[C@@H](O)[C@H]1O` [adenosine], the “Binding of adenosine to S275W mutant by SPR” value (S275W HSC70-NBD [3]) is given as “abolished”.
For `NC(=O)N1CCN(c2nc(-c3ccccc3)cs2)CC1` [Compound 1, 4-(4-Phenylthiazol-2-yl)piperazine-1-carboxamide], the “SPR binding behaviour (Langmuir isotherm)” value (HSC70-NBD; concentration-response SPR, HSC70-NBD) was “non-saturating behavior”, the “Reduction in 1H NMR peak intensity relative to 1 alone, Peak a” value (HSP72-NBD [2]; 1 (200 μM) + HSP72-NBD (10 μM), thiazole C5 proton) was 58% and the “Reduction in 1H NMR peak intensity relative to 1 alone, Peak b” value (HSP72-NBD [2]; 1 + HSP72-NBD) was 7%. For the same molecule, the “Reduction in 1H NMR peak intensity relative to 1 alone, Peak c” value (HSP72-NBD [2]; 1 + HSP72-NBD) was 14%, the “Reduction in 1H NMR peak intensity relative to 1 alone, Peak d” value (HSP72-NBD [2]; 1 + HSP72-NBD) was 13% and the “Reduction in 1H NMR peak intensity relative to 1 alone, Peak a” value (HSP72-NBD [2]; 1 + HSP72-NBD + ATP) was 8%. For the same molecule, the “Reduction in 1H NMR peak intensity relative to 1 alone, Peak b” value (HSP72-NBD [2]; 1 + HSP72-NBD + ATP) was 12%, the “Reduction in 1H NMR peak intensity relative to 1 alone, Peak c” value (HSP72-NBD [2]; 1 + HSP72-NBD + ATP) was 2% and the “Reduction in 1H NMR peak intensity relative to 1 alone, Peak d” value (HSP72-NBD [2]; 1 + HSP72-NBD + ATP) was 2%. The “waterLOGSY NOE sign inversion on addition of HSP72-NBD” value (HSP72-NBD [4]) was “binding to the protein”, the solubility kinetic at 20 h [5] was 291 µM (≈ 83.9 µg/mL) and the “Aggregation in LO-NMR experiments” value [6] was “did not show aggregation”. The melting point was 131 °C (dec.).

From article PMC8839746, “Discovery and Characterization of a Cryptic Secondary Binding Site in the Molecular Chaperone HSP70” (Molecules, 2022)
